Values of other authors, collected in patent US20110034478A1, “Oral Pharmaceutical Compositions in a Solid Dispersion Comprising Preferably Posaconazole and HPMCAs” (Schering-Plough Corporation, priority 2008, published 2011).

Row | Compound | pKa
1 | CCC(C)n1ncn(-c2ccc(N3CCN(c4ccc(OC[C@H]5CO[C@](Cn6cncn6)(c6ccc(Cl)cc6Cl)O5)cc4)CC3)cc2)c1=O (mixture of isomers) [Itraconazole] | 3.7

remark: another data set of the same source

Row | Compound | solubility in water
2 | CCC(C)n1ncn(-c2ccc(N3CCN(c4ccc(OC[C@H]5CO[C@](Cn6cncn6)(c6ccc(Cl)cc6Cl)O5)cc4)CC3)cc2)c1=O (mixture of isomers) [Itraconazole] | practically insoluble
3 | CC(C(=O)Nc1cc(-c2ccccc2)nn1-c1ccccc1)N(C)C (stereo not shown) [Difenamizole] | practically insoluble
4 | OC(Cn1cncn1)(Cn1cncn1)c1ccc(F)cc1F [Fluconazole] | about 1 ug/ml
5 | CCC(C)n1ncn(-c2ccc(N3CCN(c4ccc(OCC5CO[C@](Cn6cncn6)(c6ccc(F)cc6F)O5)cc4)CC3)cc2)c1=O (stereo partly shown) [Saperconazole] | poorly soluble

The remaining lines, values ahead:

Row | solubility in water | Compound
6 | < 100 µg/mL | CC(C)N1CCN(c2ccc(OC[C@H]3CO[C@](Cn4cncn4)(c4ccc(Cl)cc4Cl)O3)cc2)CC1 (racemic) [Terconazole]
7 | practically insoluble | N#Cc1ccc(C(c2ccc(C#N)cc2)n2cncn2)cc1 [Letrozole]
